Reference: US20180170904A1, “PYRIDIN-3-YL ACETIC ACID DERIVATIVES AS INHIBITORS OF HUMAN IMMUNODEFICIENCY VIRUS REPLICATION” (priority 2015, published 2018)
Read-outs that look alike come from different tables or passages of the source.

Test system: NL-RLuc virus (recombinant NL4-3 proviral clone with Renilla Luciferase gene)
Test: Inhibition of HIV replication (NL-RLuc reporter virus in MT-2 cells)
Format: cell-based
Details: Renilla, NL43, 120 h
Description: Inhibition of HIV replication: A recombinant NL-RLuc proviral clone was constructed in which a section of the nef gene from NL4-3 was replaced with the Renilla Luciferase gene. This virus is fully infectious and can undergo multiple cycles of replication in cell culture. In addition, the luciferous reporter provides a simple and easy method for quantitating the extent of virus growth and consequently, the antiviral activity of test compounds. The plasmid pNLRLuc contains the proviral NL-Rluc DNA cloned into pUC18 at the PvuII site. The NL-RLuc virus was prepared by transfection of 293T cells with the plasmid pNLRLuc. Transfections were performed using the LipofectAMINE PLUS kit from Invitrogen (Carlsbad, Calif.) according to the manufacturer and the virus generated was titered in MT-2 cells. For susceptibility analyses, the titrated virus was used to infect MT-2 cells in the presence of compound, and after 5 days of incubation, cells were processed and quantitated for virus growth by the amount of expressed luciferase. Assay media was RPMI 1640 supplemented with 10% heat inactivated fetal bovine serum (FBS), 100 units/ml penicillin G/100 units/ml streptomycin, 10 mM HEPES buffer pH 7.55 and 2 mM L-glutamine. The results from at least 2 experiments were used to calculate the EC50 values. Luciferase was quantitated using the Dual Luciferase kit from Promega (Madison, Wis.). Susceptibility of viruses to compounds was determined by incubation in the presence of serial dilutions of the compound. The 50% effective concentration (EC50) was calculated by using the exponential form of the median effect equation where (Fa)=1/[1+(ED50/drug conc.)^m] (Johnson V A, Byington R T. Infectivity Assay. In Techniques in HIV Research. ed. Aldovini A, Walker B D. 71-76. New York: Stockton Press.1990). Activity equal to A refers to a compound having an EC50≤100 nM, while B and C denote compounds having an EC50 between 100 nM and 1 uM (B) or >1 uM (C).

Structure (SMILES) | EC50 (read-out: Activity) [µM] | EC50 (read-out: EC50 μM) [µM]
Cc1nc(C)c([C@H](OC(C)(C)C)C(=O)O)c(N2CCC(C)(C)CC2)c1-c1ccc(SCCc2ccc(F)cc2)cc1 [Example 78, (S)-2-(tert-Butoxy)-2-(4-(4,4-dimethylpiperidin-1-yl)-5-(4-((4-fluorophenethyl)thio)phenyl)-2,6-dimethylpyridin-3-yl)acetic acid] | < 0.1 | 0.016
Cc1nc(C)c([C@H](OC(C)(C)C)C(=O)O)c(N2CC(C(C)C)C2)c1-c1ccc(C(=O)NCc2ccccc2)cc1 [Example 59, (S)-2-(5-(4-(Benzylcarbamoyl)phenyl)-4-(3-isopropylazetidin-1-yl)-2,6-dimethylpyridin-3-yl)-2-(tert-butoxy)acetic acid] | > 1 | –
Cc1nc(C)c([C@H](OC(C)(C)C)C(=O)O)c(N2CCC(Cc3ccccc3)CC2)c1-c1ccc(C(=O)NCc2ccccc2)cc1 [Example 64, (S)-2-(5-(4-(Benzylcarbamoyl)phenyl)-4-(4-benzylpiperidin-1-yl)-2,6-dimethylpyridin-3-yl)-2-(tert-butoxy)acetic acid] | 0.1 to 1 | –
CNS(=O)(=O)c1ccc(-c2c(C)nc(C)c([C@H](OC(C)(C)C)C(=O)O)c2N2CCC(C)(C)CC2)cc1 [Example 32, (S)-2-(tert-Butoxy)-2-(4-(4,4-dimethylpiperidin-1-yl)-2,6-dimethyl-5-(4-(N-methylsulfamoyl)phenyl)pyridin-3-yl)acetic acid] | 0.1 to 1 | –
Cc1nc(C)c([C@H](OC(C)(C)C)C(=O)O)c(N2CCC(C)(C)CC2)c1-c1ccc(N(CCO)CCc2ccc(F)cc2)cc1 [Example 77, (S)-2-(tert-Butoxy)-2-(4-(4,4-dimethylpiperidin-1-yl)-5-(4-((4-fluorophenethyl)(2-hydroxyethyl)amino)phenyl)-2,6-dimethylpyridin-3-yl)acetic acid] | < 0.1 | –
Cc1nc(C)c([C@H](OC(C)(C)C)C(=O)O)c(N2CCC(C)(C)CC2)c1-c1ccc(C(N)=O)cc1 [Example 25, (S)-2-(tert-Butoxy)-2-(5-(4-carbamoylphenyl)-4-(4,4-dimethylpiperidin-1-yl)-2,6-dimethylpyridin-3-yl)acetic acid] | 0.1 to 1 | –
Cc1cccc(-c2ccc(-c3c(C)nc(C)c([C@H](OC(C)(C)C)C(=O)O)c3N3CCC(C)(C)CC3)cc2)c1 [Example 17, (S)-2-(tert-Butoxy)-2-(4-(4,4-dimethylpiperidin-1-yl)-2,6-dimethyl-5-(3′-methyl-[1,1′-biphenyl]-4-yl)pyridin-3-yl)acetic acid] | < 0.1 | 0.053
Cc1nc(C)c([C@H](OC(C)(C)C)C(=O)O)c(N2CCC(C)(C)CC2)c1-c1ccc(-c2ncc(-c3ccc(F)cc3)o2)cc1 [Example 5, (S)-2-(tert-Butoxy)-2-(4-(4,4-dimethylpiperidin-1-yl)-5-(4-(5-(4-fluorophenyl)oxazol-2-yl)phenyl)-2,6-dimethylpyridin-3-yl)acetic acid] | < 0.1 | –
Cc1nc(C)c([C@H](OC(C)(C)C)C(=O)O)c(N2CCC(C)(C)CC2)c1-c1ccc(-c2ccc(Cl)cc2)cc1 [Example 11, (S)-2-(tert-Butoxy)-2-(5-(4′-chloro-[1,1′-biphenyl]-4-yl)-4-(4,4-dimethylpiperidin-1-yl)-2,6-dimethylpyridin-3-yl)acetic acid] | 0.1 to 1 | 0.135
Cc1nc(C)c([C@H](OC(C)(C)C)C(=O)O)c(N2CCC(C)(C)CC2)c1-c1ccc(Cc2ccccc2)cc1 [Example 15, (S)-2-(5-(4-Benzylphenyl)-4-(4,4-dimethylpiperidin-1-yl)-2,6-dimethylpyridin-3-yl)-2-(tert-butoxy)acetic acid] | < 0.1 | –
Cc1nc(C)c([C@H](OC(C)(C)C)C(=O)O)c(N2CCC(C)(C)CC2)c1-c1ccc(/S(CCc2ccc(F)cc2)=N/C(=O)OC(C)(C)C)cc1 (stereo partly drawn) [Example 80, (2S)-2-(tert-Butoxy)-2-(5-(4-((E)-N-(tert-butoxycarbonyl)-S-(4-fluorophenethyl)sulfinimidoyl)phenyl)-4-(4,4-dimethylpiperidin-1-yl)-2,6-dimethylpyridin-3-yl)acetic acid] | < 0.1 | –
Cc1nc(C)c([C@H](OC(C)(C)C)C(=O)O)c(N2CCC(C)(C)CC2)c1-c1ccc(S(=O)(=O)CCc2ccc(F)cc2)cc1 [Example 79, (S)-2-(tert-Butoxy)-2-(4-(4,4-dimethylpiperidin-1-yl)-5-(4-((4-fluorophenethyl)sulfonyl)phenyl)-2,6-dimethylpyridin-3-yl)acetic acid] | < 0.1 | –
Cc1cc(-c2c(C)nc(C)c([C@H](OC(C)(C)C)C(=O)O)c2N2CCC(C)(C)CC2)ccc1F [Example 39, (S)-2-(tert-Butoxy)-2-(4-(4,4-dimethylpiperidin-1-yl)-5-(4-fluoro-3-methylphenyl)-2,6-dimethylpyridin-3-yl)acetic acid] | < 0.1 | –
Cc1nc(C)c([C@H](OC(C)(C)C)C(=O)O)c(N2CCC(C)(C)CC2)c1-c1ccc(-c2ncc(-c3ccc(F)cc3)s2)cc1 [Example 6, (S)-2-(tert-Butoxy)-2-(4-(4,4-dimethylpiperidin-1-yl)-5-(4-(5-(4-fluorophenyl)thiazol-2-yl)phenyl)-2,6-dimethylpyridin-3-yl)acetic acid] | < 0.1 | –
Cc1nc(C)c([C@H](OC(C)(C)C)C(=O)O)c(N2CCC(C)(C)CC2)c1-c1ccc(-c2ccccc2)c(F)c1 [Example 14, (S)-2-(tert-Butoxy)-2-(4-(4,4-dimethylpiperidin-1-yl)-5-(2-fluoro-[1,1′-biphenyl]-4-yl)-2,6-dimethylpyridin-3-yl)acetic acid] | < 0.1 | –
CCCOc1ccc(-c2ccc(-c3c(C)nc(C)c([C@H](OC(C)(C)C)C(=O)O)c3N3CCC(C)(C)CC3)cc2)cc1 [Example 9, (S)-2-(tert-Butoxy)-2-(4-(4,4-dimethylpiperidin-1-yl)-2,6-dimethyl-5-(4′-propoxy-[1,1′-biphenyl]-4-yl)pyridin-3-yl)acetic acid] | < 0.1 | –
Cc1ccc(-c2c(C)nc(C)c([C@H](OC(C)(C)C)C(=O)O)c2N2CCC(C)(C)CC2)cc1C [Example 44, (S)-2-(tert-Butoxy)-2-(5-(3,4-dimethylphenyl)-4-(4,4-dimethylpiperidin-1-yl)-2,6-dimethylpyridin-3-yl)acetic acid] | < 0.1 | –
Cc1nc(C)c([C@H](OC(C)(C)C)C(=O)O)c(N2CCC(C)(C)CC2)c1-c1ccc(C(C)(C)O)cc1 [Example 38, (S)-2-(tert-Butoxy)-2-(4-(4,4-dimethylpiperidin-1-yl)-5-(4-(2-hydroxypropan-2-yl)phenyl)-2,6-dimethylpyridin-3-yl)acetic acid] | < 0.1 | –
Cc1nc(C)c([C@H](OC(C)(C)C)C(=O)O)c(N2CCC(C)(C)CC2)c1-c1ccc(CC#N)cc1 [Example 48, (S)-2-(tert-Butoxy)-2-(5-(4-(cyanomethyl)phenyl)-4-(4,4-dimethylpiperidin-1-yl)-2,6-dimethylpyridin-3-yl)acetic acid] | 0.1 to 1 | 0.109
Cc1nc(C)c([C@H](OC(C)(C)C)C(=O)O)c(N2CCC(C)(C)CC2)c1-c1ccc(/C=C/C#N)cc1 [Example 49, (S,E)-2-(tert-Butoxy)-2-(5-(4-(2-cyanovinyl)phenyl)-4-(4,4-dimethylpiperidin-1-yl)-2,6-dimethylpyridin-3-yl)acetic acid] | 0.1 to 1 | –
